Test results: ChEMBL document CHEMBL4007392, “Modulating Mineralocorticoid Receptor with Non-steroidal Antagonists. New Opportunities for the Development of Potent and Selective Ligands without Off-Target Side Effects” (J Med Chem, 2017)

Target: T1, Progesterone receptor (Homo sapiens, UniProt P06401)
T1 sequence (P06401 whole entry): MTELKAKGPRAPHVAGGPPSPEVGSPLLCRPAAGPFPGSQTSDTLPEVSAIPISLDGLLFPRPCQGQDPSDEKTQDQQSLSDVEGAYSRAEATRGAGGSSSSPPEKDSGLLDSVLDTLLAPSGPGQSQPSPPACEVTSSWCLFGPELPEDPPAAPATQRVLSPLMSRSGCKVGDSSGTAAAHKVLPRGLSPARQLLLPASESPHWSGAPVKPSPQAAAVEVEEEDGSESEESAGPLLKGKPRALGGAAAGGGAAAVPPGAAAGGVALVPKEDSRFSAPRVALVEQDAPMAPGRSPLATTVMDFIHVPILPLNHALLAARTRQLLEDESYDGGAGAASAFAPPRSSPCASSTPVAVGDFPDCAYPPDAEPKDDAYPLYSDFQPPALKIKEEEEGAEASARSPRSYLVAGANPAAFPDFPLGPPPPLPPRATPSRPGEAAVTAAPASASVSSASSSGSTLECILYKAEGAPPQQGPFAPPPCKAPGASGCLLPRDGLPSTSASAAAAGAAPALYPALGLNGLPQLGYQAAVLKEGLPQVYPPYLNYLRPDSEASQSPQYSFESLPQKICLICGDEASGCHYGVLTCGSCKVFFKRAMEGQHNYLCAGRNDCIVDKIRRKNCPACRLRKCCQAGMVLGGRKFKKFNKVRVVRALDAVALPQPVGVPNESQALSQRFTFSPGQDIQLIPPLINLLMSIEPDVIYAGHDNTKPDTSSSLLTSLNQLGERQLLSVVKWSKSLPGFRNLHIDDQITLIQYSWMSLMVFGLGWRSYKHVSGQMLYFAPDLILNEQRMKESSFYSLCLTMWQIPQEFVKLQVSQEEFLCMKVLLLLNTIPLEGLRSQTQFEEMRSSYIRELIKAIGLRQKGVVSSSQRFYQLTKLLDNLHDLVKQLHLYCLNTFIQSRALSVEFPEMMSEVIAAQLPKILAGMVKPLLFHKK
Experiment: Antagonist activity at GAL4-fused human PR LBD (680 to 933 residues) expressed in CHO-K1 cells assessed as inhibition of progesterone-induced transactivation activity after 5 to 6 hrs by luciferase reporter gene assay
Assay type: cell-based

Q: For `CCOc1ncc(C)c2c1[C@H](c1ccc(C#N)cc1OC)C(C(N)=O)=C(C)N2` [FINERENONE], which IC50 is on record?
A: The IC50 was ≥ 10 µM.
